Here are results for 24 compounds from patent US11702399B2, “Quinazolinone derivative, preparation method therefor, pharmaceutical composition, and applications” (KANGPU BIOPHARMACEUTICALS, LTD., priority 2016, dated 2023).

SMILES strings stand for the structures. Like-named read-outs stand apart in the source and are kept apart here.

Holding throughout (assay type): cell-based
For assay [1], the system named is MM.1S cells (myeloma cells). In words: CTG cell proliferation, MM.1S. The conditions noted are these: Homo sapiens, MM1.S, CellTiter-Glo, 72-120 hours, read-out: IC50 value for MM.1S Inhibition. An excerpt:
(§1) Efficacy Example 2: CTG Cell Proliferation Experimental Method
(§2) MM.1S cells (myeloma cells) (ATCC, catalog number CRL-2974), DOHH2 cells (mantle cell lymphoma cells) (DSMZ, catalog number ACC-47), NCI-H929 cells (myeloma cells) (ATCC, catalog number CRL-9068), or WSU-DLCL-2 cells (diffuse large B cell lymphoma cells) (DSMZ, catalog number ACC-575), Namalwa.CSN/70 cells (non-Hodgkin's lymphoma cells (DSMZ, catalog number ACC-70) was inoculated as (1.8-15)×10^3 per well in white wall, transparent bottom 96-well plate containing specific media (Corning, catalog number CLS3903), which was cultured in 37° C., 5% CO2 incubator for 24 hours. Compounds were formulated in DMSO (Sigma, Cat. No. 276855) as 150 mM stock, which was diluted to the required concentration (DMSO final concentration is 0.2%) in culture medium and added to each well, 2 wells/concentration. The plate was incubated in 37° C., 5% CO2 incubator for 72-120 hours. Afterwards, 100 μl of CellTiter-Glo® cell activity assay reagent (Promega, Cat. No. G7570) was added to each well, which was mixed on a plate shaker for 10 minutes to induce cell lysis. The 96-well plate was allowed to stand at room temperature for 10 minutes to stabilize the luminescence signal. A white base film was pasted on the bottom of the plate and the EnSpire was used to read the plate. Data processing was performed with XLfit software to obtain IC50 values.
A general note: Cellular ATP, detected with luciferase, serves as a proxy for viable cell number.

In assay [2] the test system is TNF-α. In words: TNF-α activity inhibition assay (LPS-stimulated hPBMC, TNF-α ELISA). The conditions noted are these: Homo sapiens, 18 h. How it is done: Efficacy Example 1: TNF-α Activity Inhibition Assay
Heat Inactivated FBS: Invitrogen, Cat #10100147
DMSO: Dimethyl sulphoxide, Sigma, Cat #D8418
CTL-Anti-Aggregate Wash 20×: CTL, Cat #CTL-AA-005
Human TNF ELISA Set: BD, Cat #555212
PBMC Recovery and Cell Plating Steps
1) Agitation was performed continuously in a 37° C. water bath to rapidly thaw cells.
2) The cells were gently added to a 15 ml centrifuge tube, to which was then added 10 ml of fresh, prewarmed recovery medium gently and then centrifugation was performed at 1000 rpm for 10 min.
3) The supernatant medium was discarded and resuspension was performed with 10 ml of fresh, prewarmed RPMI 1640 complete medium.
1) The total number of cells needed for the experiment was calculated and adjusted to the appropriate cell concentration per ml. 100 ul and 10^5 cells per well.
2) The cell suspension was diluted with appropriate volume of cell culture medium.
3) The cell suspension was added to a disposable sterile sample well.
4) 100 ul of cell suspension was added to each well of a 96-well plate.
5) The plate was incubated in a 37° C., 5% CO2 incubator for 2 hours.
Compound Preparation Step
1. LPS: The 1 mg/mL stock solution was diluted with water, aliquoted, and stored at −80° C. Prior to each test, the working solution of LPS was diluted from the stock solution with serum-free RPMI 1640 medium.
20 mM stock solution was dissolved in DMSO and the compound was checked for solubility, aliquoted, and stored at −80° C.
8× compound gradient preparation: […]
A series of compound concentration gradient was diluted with DMSO: 10 mM, 2 mM, 0.4 mM, 80 uM, 16 uM, 3.2 uM, 0.64 uM, 0.128 uM were obtained and then the compounds were diluted 125-fold with serum-free RPMI 1640 medium to the final 8×. The final concentration of DMSO in cell culture was 0.1%.
Compound Processing Experimental Procedures and Collection of Supernatants
1. Cell Plating: Fresh cells were plated in 96-well cell culture plates according to the procedure above, 100 ul and 10^5 cells per well, and then incubated in a 37° C., 5% CO2 incubator for 2 hours.
2. Compound Preparation: Before test, compounds were added to the plates according to the above description. A dose of compound in 8× concentration was prepared with serum-free RPMI 1640 medium and all gradients of solution were added to the compound plate.
3. Compound addition: 16.7 ul of compound solution in working concentration was added to each well of the cell culture plate. The plate was incubated in a 37° C., 5% CO2 incubator for 1 hour.
4. 16.7 ul of 8×LPS per well (final concentration of LPS is EC80, the amount of each PBMC needed to be determined) was added. The plate was incubated for 18 hours in 37° C., 5% CO2 incubator.
5. 80 ul of supernatant per well was collected and then subjected to TNF-α ELISA assay. The collected supernatant can be stored at −80° C. The supernatant needed to be diluted in various ratios to ensure that the experimental dose would not exceed the linear range of the TNF-α standard curve, depending on the amount of TNF-α released in different donors. Typically, 20-100 ul of supernatant was diluted to 200 ul and then used for ELISA experiments.
The TNF-α ELISA test procedure were referred to the BD human TNF-α ELISA kit experimental procedure.
Four compounds per plate. 5-fold dilution was performed, starting from 10 uM, by 8 gradients, and parallel wells were made. A total of 16 compounds were tested.
The TNF-α standard was added to each plate. (1st well, starting from 500 pg/ml, 2-fold dilution, 7 gradients)
ZPE (0% inhibition) used 15 pg/ml LPS+0.1% DMSO, while HPE (100% inhibition) used only 0.1% DMSO.
The inhibition rate statistics were calculated. The inhibition rate (%)=[1−[…]]*100%. IC50 was used to evaluate the concentration of the test compound (nM) at 50% inhibition.
On the technique in general: ELISA stands for enzyme-linked immunosorbent assay.

Assay [3] relates to NCI-H929 cells (myeloma cells). Description: CTG cell proliferation, NCI-H929. The conditions noted are these: Homo sapiens, Table 2 batch, CellTiter-Glo, 72-120 hours, read-out: IC50 value for NCI-H929 Inhibition.
From the text: as §1, §2

The test system of assay [4] is DOHH2 cells (mantle cell lymphoma cells). Description: CTG cell proliferation, DOHH2. The conditions noted are these: Homo sapiens, DOHH-2; Table 2 batch; CellTiter-Glo, 72-120 hours; read-out: IC50 value for DOHH2 Inhibition.
From the text: as §1, §2

Assay [5] has as its system WSU-DLCL-2 cells (diffuse large B cell lymphoma cells). In words: CTG cell proliferation, WSU-DLCL-2. To be noted: Homo sapiens, WSUDLCL2; Table 2 batch; CellTiter-Glo, 72-120 hours; read-out: IC50 value for WSU-DLCL2 Inhibition.
From the text: as §1, §2

Assay [6] concerns Namalwa.CSN/70 cells (non-Hodgkin's lymphoma cells). In words: CTG cell proliferation, Namalwa.CSN/70. The conditions noted are these: Table 2 batch; CellTiter-Glo, 72-120 hours; read-out: IC50 value for Namalwa. CSN/70 Inhibition.
From the text: as §1, §2

Regarding `Cc1nc2cc(F)cc(N)c2c(=O)n1[C@H]1CCC(=O)NC1=O` [Compound K102], the IC50 in assay [1] (Table 4 batch) was found to be 104 nM; in assay [2] (Table 1-1 experiment), 7.3 nM.

Consider `Cc1nc2cc(Br)cc(N)c2c(=O)n1C1CCC(=O)NC1=O` (stereo not shown) [Compound K501], for which the IC50 in assay [1] (Table 3 batch) stood at 26.7 nM; in assay [2] (Table 1-1 experiment), 9.6 nM.

Take `[2H][C@]1(n2c(C)nc3cc(F)cc(N)c3c2=O)CCC(=O)NC1=O` [Compound K105]: the IC50 in assay [1] (Table 4 batch) was determined as 33 nM; in assay [2] (Table 1-1 experiment), 6.4 nM.

Regarding `[2H]C1(n2c(C)nc3cc(F)cc(N)c3c2=O)CCC(=O)NC1=O` (stereo not shown) [Compound K104], the IC50 in assay [1] (Table 4 batch) is 192 nM.

Turning to `Cc1nc2cc(Cl)cc(N)c2c(=O)n1C1CCC(=O)NC1=O` (stereo not shown) [Compound K401], the results for the IC50 in assay [1] (Table 3 batch) and in assay [2] (Table 1-1 experiment) were 22 nM and 10.2 nM, respectively.

`Cc1nc2cc(OCc3ccc(CN4CCOCC4)cc3F)cc(N)c2c(=O)n1C1CCC(=O)NC1=O` (stereo not shown) [Compound K706] registered an IC50 in assay [2] (Table 1-1 experiment) of 319 nM.

Consider `Cc1nc2cc(F)cc(O)c2c(=O)n1C1CCC(=O)NC1=O` (stereo not shown) [Compound K631], for which, in assay [1] (Table 3 batch), the IC50 was found to be 956 nM.

Take `Cc1nc2c(F)ccc(N)c2c(=O)n1C1CCC(=O)NC1=O` (stereo not shown) [Reference 2, reference compound]: in assay [1] (Table 3 batch), the IC50 was over 300000 nM.

For the compound `Cc1nc2ccc(F)c(N)c2c(=O)n1C1CCC(=O)NC1=O` (stereo not shown) [Reference 3, reference compound], the IC50 in assay [1] (Table 3 batch) came to 1170 nM.

Take `Cc1nc2cc(F)cc(N)c2c(=O)n1[C@@H]1CCC(=O)NC1=O` [Compound K103]: the IC50 amounted to 465 nM in assay [1] (Table 4 batch) and 283 nM in assay [2] (Table 1-1 experiment).

As to `Cc1nc2cc(F)cc(N)c2c(=O)n1C1CCC(=O)NC1=O` (stereo not shown) [Compound K101], the IC50 in assay [3] came to 30.4 nM; in assay [1] (Table 2 batch), 13.3 nM; in assay [4] it was 125 nM; in assay [5], 179 nM; in assay [2] (Table 1-1 experiment), 10.2 nM; in assay [2] (Table 1 experiment), 27.8 nM. Further, in assay [6], the IC50 turned out to be 6.8 nM.

As for `Cc1cc(N)c2c(=O)n(C3CCC(=O)NC3=O)c(C)nc2c1` (stereo not shown) [Compound K720], in assay [2] (Table 1-1 experiment), the IC50 amounted to 138 nM.

For `Cc1nc2cc(F)cc(NC(C)C)c2c(=O)n1C1CCC(=O)NC1=O` (stereo not shown) [Compound K617], in assay [2] (Table 1-1 experiment), the IC50 worked out at 153 nM.

In the case of `CC(=O)Nc1cc(F)cc2nc(C)n(C3CCC(=O)NC3=O)c(=O)c12` (stereo not shown) [Compound K633], the IC50 in assay [1] (Table 3 batch) was 314 nM; in assay [2] (Table 1-1 experiment), 392 nM.

As for `Cc1nc2cc(F)ccc2c(=O)n1C1CCC(=O)NC1=O` (stereo not shown) [Reference 1, reference compound], the IC50 in assay [1] (Table 3 batch) came out at 2400 nM; in assay [2] (Table 1-1 experiment), 2800 nM.

Turning to `Nc1cccc2c1CN(C1CCC(=O)NC1=O)C2=O` (stereo not shown) [Compound B001], the IC50 in assay [3] was 1000 nM; in assay [1] (Table 2 batch), 362 nM; in assay [4], over 300000 nM; in assay [5], over 300000 nM; in assay [2] (Table 1-1 experiment), 99.1 nM; in assay [2] (Table 1 experiment), 192 nM. Moreover, the IC50 in assay [6] is over 300000 nM.

Turning to `Cc1nc2cc(O)cc(N)c2c(=O)n1C1CCC(=O)NC1=O` (stereo not shown) [Compound K700], the IC50 in assay [1] (Table 3 batch) is 507 nM.

The compound `Cc1nc2cc(OCc3ccccc3)cc(N)c2c(=O)n1C1CCC(=O)NC1=O` (stereo not shown) [Compound K704] displayed an IC50 in assay [2] (Table 1-1 experiment) of 466 nM.

As to `Cc1nc2cc(C#N)cc(N)c2c(=O)n1C1CCC(=O)NC1=O` (stereo not shown) [Compound K724], the IC50 in assay [2] (Table 1-1 experiment) was 5.9 nM.

Turning to `Cc1nc2cc(F)cc(NC(=O)C(C)C)c2c(=O)n1C1CCC(=O)NC1=O` (stereo not shown) [Compound K635], the IC50 in assay [1] (Table 3 batch) amounted to 2810 nM.

As for `Cc1nc2cccc(N)c2c(=O)n1C1CCC(=O)NC1=O` (stereo not shown) [Compound K001, reference compound], the IC50 in assay [3] came to 86.1 nM; in assay [1] (Table 2 batch) it was 49.8 nM; in assay [1] (Table 3 batch), 37.5 nM; in assay [1] (Table 4 batch) it was 275 nM; in assay [4] it was 459 nM; in assay [5], 469 nM. Moreover, the results for the IC50 in assay [2] (Table 1-1 experiment), in assay [2] (Table 1 experiment) and in assay [6] were 32.8 nM, 32.5 nM and 65.8 nM, respectively.

Consider `COc1cc(F)cc2nc(C)n(C3CCC(=O)NC3=O)c(=O)c12` (stereo not shown) [Compound K627], for which, in assay [1] (Table 3 batch), the IC50 turned out to be 5930 nM.

Regarding `CNc1cc(F)cc2nc(C)n(C3CCC(=O)NC3=O)c(=O)c12` (stereo not shown) [Compound K613], the IC50 in assay [2] (Table 1-1 experiment) was 9.4 nM.

Take `[2H][C@@]1(n2c(C)nc3cc(F)cc(N)c3c2=O)CCC(=O)NC1=O` [Compound K106]: the IC50 is 504 nM in assay [1] (Table 4 batch) and 781 nM in assay [2] (Table 1-1 experiment).
